Results published in paper PMC6629894, “Ruthenium Complexes Containing Heterocyclic Thioamidates Trigger Caspase-Mediated Apoptosis Through MAPK Signaling in Human Hepatocellular Carcinoma Cells” (Frontiers in Oncology, 2019).
“Also recorded” adds a separate entry of the source. Like-named read-outs stand apart in the source and are kept apart here. Marks after values point to notes of the source that are not given here.

Experiments:
[1] = test system: BAD KO SV40 MEF (BAD gene knockout immortalized mouse embryonic fibroblasts); test: Alamar blue cytotoxicity assay, 72 h; type: cell-based; conditions: read-out: IC50 and 95% CI
[2] = test system: HepG2 cells engrafted in C.B-17 SCID mice; test: Human hepatocellular carcinoma xenograft model; type: in vivo; conditions: for mean tumor mass: 21 days (negative control 0.6 ± 0.1 g); for tumor mass inhibition rates: 0.5 and 1 mg/kg/day i.p.
Method: A total of 64 C.B-17 severe-combined immunodeficiency (SCID) mice (females, 25–30 g) were obtained and maintained at the animal facilities from Gonçalo Moniz Institute-FIOCRUZ (Salvador, Bahia, Brazil). Animals were housed in cages with free access to food and water. All animals were kept under a 12:12-h light-dark cycle (lights on at 6:00 a.m.). The animals were treated according to the ethical principles for animal experimentation of SBCAL (Brazilian Association of Laboratory Animal Science), Brazil. The Animal Ethics Committee of Gonçalo Moniz Institute–FIOCRUZ (Salvador, Bahia, Brazil) approved the experimental protocol (number 06/2015). Animal welfare was monitored throughout the study, and the pain and suffering were minimized.

HepG2 cells = test: Trypan blue exclusion assay; type: cell-based, human
Method: For all subsequent in vitro experiments, 2 mL of a suspension of HepG2 cells were seeded (7 × 10^4 cells/mL) and incubated in a 24-well plate overnight to allow the cells to adhere to the plate surface.
In the trypan blue exclusion assay, the number of viable cells and non-viable cells (stained with trypan blue) were counted. Briefly, 90 μL was removed from the cell suspension, and 10 μL of trypan blue (0.4%) was added. Cell counting was performed using a light microscope with a hemocytometer filled with an aliquot of the homogenized cell suspension.

B16-F10 (mouse melanoma) = test: Alamar blue cytotoxicity assay, 72 h; type: cell-based
Excerpt: (§1) The cell lines HepG2 (human hepatocellular carcinoma), HL-60 (human promyelocytic leukemia), K-562 (human chronic myelogenous leukemia), B16-F10 (mouse melanoma), MCF-7 (human breast carcinoma), HCT116 (human colon carcinoma), HSC-3 (human oral squamous cell carcinoma), SCC-4 (human oral squamous cell carcinoma), MRC-5 (human lung fibroblast), WT SV40 MEF (wild-type immortalized mouse embryonic fibroblast), and BAD KO SV40 MEF (BAD gene knockout immortalized mouse embryonic fibroblasts) were obtained from the American Type Culture Collection (ATCC, Manassas, VA, USA). Cells were cultured in RPMI 1640 medium (Gibco-BRL, Gaithersburg, MD, USA) with 10% fetal bovine serum (Life, Carlsbad, CA, USA), 2 mM L-glutamine (Vetec Química Fina, Duque de Caxias, RJ, Brazil) and 50 μg/mL gentamycin (Life). For all experiments, adherent cells were collected by treatment with 0.25% trypsin-EDTA solution (Gibco-BRL). All cell lines were cultured in flasks at 37°C in 5% CO2 and were subcultured every 3–4 days to maintain exponential growth. All cell lines were tested for mycoplasma using a mycoplasma staining kit (Sigma-Aldrich Co.) to validate that the cells that were used were free from contamination.
(§2) Cytotoxicity was measured colorimetrically using an Alamar blue method that was performed as previously described ([20], [21]). Cells were seeded in 96-well plates for all experiments (7 × 10^4 cells/mL for adherent cells or 3 × 10^5 cells/mL for suspension cells in 100 μL of medium) and incubated overnight at 37°C with 5% CO2 to allow for adherence. The complexes were dissolved in 0.5% dimethyl sulfoxide (DMSO, Vetec Química Fina) at eight different concentrations from 0.19 to 25 μg/mL and were added to each well and incubated for 72 h. The negative control was treated with the vehicle (0.5% DMSO) that was used to solubilize and dilute the complexes. […] Four (for cell lines) or 24 h (for PBMCs) before the end of incubation, 20 μL of a stock solution (0.312 mg/mL) of resazurin (Sigma-Aldrich Co.) was added to each well. Absorbance was measured at 570 and 600 nm using a SpectraMax 190 Microplate Reader (Molecular Devices, Sunnyvale, CA, USA).

[3] = test system: K-562 (human chronic myelogenous leukemia); test: Alamar blue cytotoxicity assay, 72 h; type: cell-based; conditions: for IC50: read-out: IC50 and 95% CI, K-562, 72 h
Excerpt: as §1, §2

[4] = test system: HepG2 (human hepatocellular carcinoma); test: Alamar blue cytotoxicity assay, 72 h; type: cell-based
Excerpt: as §1, §2

[5] = for Differential leukocytes: Eosinophils / Differential leukocytes: Lymphocytes / Differential leukocytes: Monocytes / Differential leukocytes: Neutrophils / Erythrocytes / Total leukocytes: peripheral blood
Method: A human hepatocellular carcinoma xenograft model was generated by subcutaneously implanting HepG2 cells (1 × 10^7 cells per 500 μL) into the left front armpit of C.B-17 SCID mice. […] The treatments were initiated one day after the cancer cell injection. The animals were treated intraperitoneally (200 μL per animal) once a day for 21 consecutive days. On the 22nd day, the animals were anesthetized, and peripheral blood samples were collected from the brachial artery. Animals were euthanized by an anesthetic overdose, and tumors were excised and weighed.
To evaluate the toxicological aspects, mice were weighed at the beginning and at the end of the experiment. […] Hematological analysis was performed using an Advia 60 hematology system (Bayer, Leverkusen, Germany).

[6] = test system: WT SV40 MEF (wild-type immortalized mouse embryonic fibroblast); test: Alamar blue cytotoxicity assay, 72 h; type: cell-based; conditions: read-out: IC50 and 95% CI
calf thymus DNA (ctDNA) = test: DNA interaction assay (ethidium bromide displacement); type: binding
Method: DNA interaction was measured in a cell-free system as previously described ([22]). In this assay, the ability of the complexes to translocate ethidium bromide, a DNA intercalator, from calf thymus DNA (ctDNA, Sigma-Aldrich Co.) was examined. […] […] After a 15 min incubation at room temperature, fluorescence was measured using the excitation and emission wavelengths of 320 and 600 nm, respectively, using a Spectramax Microplate Reader (Molecular Devices).

## COc1cccc2c1C(=O)c1c(O)c3c(c(O)c1C2=O)C[C@@](O)(C(=O)CO)C[C@@H]3O[C@H]1C[C@H](N)[C@H](O)[C@H](C)O1 [Doxorubicin, reference compound]
[1]; Mus musculus, Fibroblast
  IC50: 400 nM
[2]; 0.3 mg/kg/day i.p., 21 days
  reduction of tumor weight vs negative control: 36.8%
HepG2 cells; 2 μM, 24 h
  reduction of the number of viable cells vs negative control: 53.1%
HepG2 cells; 2 μM, 48 h
  reduction of the number of viable cells vs negative control: 74.7%
B16-F10 (mouse melanoma); MRC-5 vs B16-F10
  Selectivity index (SI = IC50 [noncancerous cells]/IC50 [cancer cells]): 2.0
B16-F10 (mouse melanoma); Mus musculus, B16-F10, 72 h, read-out: IC50 and 95% CI
  IC50: 200 nM
B16-F10 (mouse melanoma); PBMCs vs B16-F10
  Selectivity index (SI = IC50 [noncancerous cells]/IC50 [cancer cells]): 12.5
[3]; MRC-5 vs K-562
  Selectivity index (SI = IC50 [noncancerous cells]/IC50 [cancer cells]): 0.4
[3]; PBMCs vs K-562
  Selectivity index (SI = IC50 [noncancerous cells]/IC50 [cancer cells]): 2.8
[4]; MRC-5 vs HepG2
  Selectivity index (SI = IC50 [noncancerous cells]/IC50 [cancer cells]): 1.3
[4]; PBMCs vs HepG2
  Selectivity index (SI = IC50 [noncancerous cells]/IC50 [cancer cells]): 8.3
[5]; 0.3 mg/kg/day
  Initial body weight: 22.3 ± 0.4 g
[5]; 0.3 mg/kg/day i.p., 21 days
  Final body weight: 19.5 ± 0.6 g
  Heart relative weight: 0.5 ± 0.02 g/100 g body weight
  Kidney relative weight: 1.5 ± 0.04 g/100 g body weight
  Liver relative weight: 4.8 ± 0.1 g/100 g body weight
  Lung relative weight: 0.9 ± 0.06 g/100 g body weight
[5]; 0.3 mg/kg/day, 21 days
  Differential leukocytes: Eosinophils: 1.0%
  Differential leukocytes: Lymphocytes: 49.3%
  Differential leukocytes: Monocytes: 1.0%
  Differential leukocytes: Neutrophils: 48.8%
  Erythrocytes: 8.9 ± 0.7 10^6cells/μL
  Total leukocytes: 1.5 ± 0.2* 10^3cells/μL
[6]; Mus musculus, Fibroblast
  IC50: 40 nM
Calf thymus DNA (ctDNA); 20 μM
  reduction of the fluorescence intensity (ethidium bromide-ctDNA) vs negative control: 89.0%

## Cn1ccnc1[S-].F[P-](F)(F)(F)(F)F.[Ru+2].c1ccc(-c2ccccn2)nc1.c1ccc(P(CCCCP(c2ccccc2)c2ccccc2)c2ccccc2)cc1 [Complex 1, [Ru(mmi)(bipy)(dppb)]PF6]
[1]
  IC50: 700 nM
[2]; 0.5 mg/kg/day i.p.
  mean tumor mass: 0.4 ± 0.1 g
[2]; 1 mg/kg/day i.p.
  mean tumor mass: 0.3 ± 0.1 g
[2]; 21 days
  tumor mass inhibition rates: 31.5–45.4%
HepG2 cells; 5 μM, 24 h
  reduction of the number of viable cells vs negative control: 40.1%
HepG2 cells; 5 μM, 48 h
  reduction of the number of viable cells vs negative control: 80.9%
HepG2 cells; 10 μM, 24 h
  reduction of the number of viable cells vs negative control: 78.9%
HepG2 cells; 10 μM, 48 h
  reduction of the number of viable cells vs negative control: 93.9%
B16-F10 (mouse melanoma); MRC-5 vs B16-F10
  Selectivity index (SI = IC50 [noncancerous cells]/IC50 [cancer cells]): 1.3
B16-F10 (mouse melanoma); PBMCs vs B16-F10
  Selectivity index (SI = IC50 [noncancerous cells]/IC50 [cancer cells]): 1.5
[3]; PBMCs vs K-562
  Selectivity index (SI = IC50 [noncancerous cells]/IC50 [cancer cells]): 1.9
[3]
  IC50: 1400 nM
[4]; read-out: IC50 and 95% CI, HepG2, 72 h
  IC50: 2600 nM
[5]; 0.5 mg/kg/day
  Initial body weight: 21.7 ± 0.2 g
[5]; 0.5 mg/kg/day i.p., 21 days
  Final body weight: 20.4 ± 0.3 g
  Survival: 10/10
[5]; 1 mg/kg/day
  Initial body weight: 20.3 ± 0.2 g
[5]; 1 mg/kg/day i.p., 21 days
  Final body weight: 20.9 ± 0.4 g
  Survival: 10/10
[5]; 0.5 mg/kg/day, 21 days
  Differential leukocytes: Eosinophils: 0.7%
  Differential leukocytes: Lymphocytes: 36.4%
  Differential leukocytes: Monocytes: 39.9%
  Differential leukocytes: Neutrophils: 23.8%
  Erythrocytes: 10.5 ± 0.6 10^6cells/μL
  Total leukocytes: 2.3 ± 0.4 10^3cells/μL
[5]; 1 mg/kg/day, 21 days
  Differential leukocytes: Eosinophils: 1.4%
  Differential leukocytes: Lymphocytes: 55.5%
  Differential leukocytes: Monocytes: 20.1%
  Differential leukocytes: Neutrophils: 24.4%
  Erythrocytes: 6.7 ± 0.9 10^6cells/μL
  Total leukocytes: 3.9 ± 1.9 10^3cells/μL
[6]
  IC50: 1100 nM
Calf thymus DNA (ctDNA); 5 μM
  reduction of the fluorescence intensity (ethidium bromide-ctDNA) vs negative control: 41.6%
Calf thymus DNA (ctDNA); 10 μM
  reduction of the fluorescence intensity (ethidium bromide-ctDNA) vs negative control: 34.0%
Calf thymus DNA (ctDNA); 20 μM
  reduction of the fluorescence intensity (ethidium bromide-ctDNA) vs negative control: 30.4%

## F[P-](F)(F)(F)(F)F.[Ru+2].[S-]C1=NCCS1.c1ccc(-c2ccccn2)nc1.c1ccc(P(CCCCP(c2ccccc2)c2ccccc2)c2ccccc2)cc1 [Complex 2, [Ru(tzdt)(bipy)(dppb)]PF6]
[1]
  IC50: 2900 nM
[2]; 0.5 mg/kg/day i.p.
  mean tumor mass: 0.3 ± 0.1 g
[2]; 1 mg/kg/day
  fibrosis in tumor histology: most evident fibrosis
[2]; 1 mg/kg/day i.p.
  mean tumor mass: 0.2 ± 0.1 g
[2]; 21 days
  tumor mass inhibition rates: 46.9–67.7%
HepG2 cells; 2 μM, 24 h
  reduction of the number of viable cells vs negative control: 42.1%
HepG2 cells; 2 μM, 48 h
  reduction of the number of viable cells vs negative control: 67.3%
HepG2 cells; 4 μM, 24 h
  reduction of the number of viable cells vs negative control: 58.6%
HepG2 cells; 4 μM, 48 h
  reduction of the number of viable cells vs negative control: 93.1%
B16-F10 (mouse melanoma); MRC-5 vs B16-F10
  Selectivity index (SI = IC50 [noncancerous cells]/IC50 [cancer cells]): 1.2
B16-F10 (mouse melanoma); PBMCs vs B16-F10
  Selectivity index (SI = IC50 [noncancerous cells]/IC50 [cancer cells]): 2.0
[3]; MRC-5 vs K-562
  Selectivity index (SI = IC50 [noncancerous cells]/IC50 [cancer cells]): 1.8
[3]; PBMCs vs K-562
  Selectivity index (SI = IC50 [noncancerous cells]/IC50 [cancer cells]): 2.9
[3]
  IC50: 900 nM
[4]; MRC-5 vs HepG2
  Selectivity index (SI = IC50 [noncancerous cells]/IC50 [cancer cells]): 0.8
[4]; PBMCs vs HepG2
  Selectivity index (SI = IC50 [noncancerous cells]/IC50 [cancer cells]): 1.4
[5]; 0.5 mg/kg/day
  Initial body weight: 20.4 ± 0.4 g
[5]; 0.5 mg/kg/day i.p., 21 days
  Final body weight: 20.8 ± 0.4 g
  Heart relative weight: 0.6 ± 0.1 g/100 g body weight
  Kidney relative weight: 1.5 ± 0.1 g/100 g body weight
  Liver relative weight: 4.7 ± 0.2 g/100 g body weight
  Lung relative weight: 0.8 ± 0.1 g/100 g body weight
  Survival: 10/10
[5]; 1 mg/kg/day
  Initial body weight: 19.9 ± 0.5 g
[5]; 1 mg/kg/day i.p., 21 days
  Final body weight: 19.4 ± 0.5 g
  Heart relative weight: 0.6 ± 0.1 g/100 g body weight
  Kidney relative weight: 1.5 ± 0.1 g/100 g body weight
  Liver relative weight: 4.6 ± 0.1 g/100 g body weight
  Lung relative weight: 0.8 ± 0.1 g/100 g body weight
  Survival: 10/10
[5]; 0.5 and 1 mg/kg/day i.p., 21 days
  hepatotoxicity: focal areas of coagulation necrosis in the liver (histology): more evident; also recorded: evidence of hepatotoxicity
[5]; 0.5 mg/kg/day, 21 days
  Differential leukocytes: Eosinophils: 1.3%
  Differential leukocytes: Lymphocytes: 39.9%
  Differential leukocytes: Monocytes: 39.1%
  Differential leukocytes: Neutrophils: 21.1%
  Erythrocytes: 8.5 ± 1.0 10^6cells/μL
  Total leukocytes: 2.5 ± 0.4 10^3cells/μL
[5]; 1 mg/kg/day, 21 days
  Differential leukocytes: Eosinophils: 1.1%
  Differential leukocytes: Lymphocytes: 32.2%
  Differential leukocytes: Monocytes: 32.5%
  Differential leukocytes: Neutrophils: 34.4%
  Erythrocytes: 7.8 ± 0.8 10^6cells/μL
  Total leukocytes: 2.7 ± 0.4 10^3cells/μL
[6]
  IC50: 2000 nM
Calf thymus DNA (ctDNA); 5 μM
  reduction of the fluorescence intensity (ethidium bromide-ctDNA) vs negative control: 36.9%
Calf thymus DNA (ctDNA); 10 μM
  reduction of the fluorescence intensity (ethidium bromide-ctDNA) vs negative control: 42.9%
Calf thymus DNA (ctDNA); 20 μM
  reduction of the fluorescence intensity (ethidium bromide-ctDNA) vs negative control: 45.4%
